The text below walks through data of patent US20240067651A1 (Biohaven Therapeutics Ltd., priority 2019, published 2024).

A short description of data set [1]: Caco-2 Permeability Assay. The class given is in vitro ADME, human. The settings on record: human. An outline of the steps: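 Caco-2 monolayers cultured 21 days (TEER >600 […]); test article at 10 μM in HBSS/HEPES pH 7.4 transport medium, dosed apical or basolateral, ±Pgp inhibitor. Incubated 90 min at 37 °C; both compartments quantified by LC-MS/MS. Papp (A→B, B→A), efflux ratio and % recovery calculated.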
In general terms: Caco-2 cells form a polarised layer with tight junctions and transporters.

The nature of data set [2]: Stability in Simulated Gastric Fluid (SGF). It counts as in vitro ADME. Details: key: % parent compound remaining relative to 0-minute sample. An outline of the steps: (§1)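 Compound at 2 μg/mL final was incubated at 37° C with orbital shaking in SGF containing pepsin (pH 1.2) or SIF containing pancreatin (pH 6.8), sampled from 0 to 60 minutes. Parent remaining was measured by LC-MS/MS relative to the 0-minute sample; half-life came from ln(% remaining) versus time when enough points existed.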

Data set [3] in a line: Stability in Simulated Intestinal Fluid (SIF). The class given is in vitro ADME. More on the design: key: % parent compound remaining relative to 0-minute sample. In outline:
as §1

A short description of the next data set: Plasma Stability. The class given is in vitro ADME, human. In outline:
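Compounds incubated at 1 μM in fresh human plasma for 1 hour at 37° C, then protein-precipitated with acetonitrile/formic acid containing internal standard. Remaining parent measured by LC-MS/MS in triplicate, expressed as percent of control remaining.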

Setting [4] is: Caco-2, pH 7.4, Caco-2 monolayer.
Where [5] appears, read: simulated gastric fluid, at 1 h.
The mark [6] stands for this setting: simulated intestinal fluid, at 1 h.
Setting [7] is: bare number, unit or time not given.

Consider `CC(C)OCCn1c(=S)[nH]c(=O)c2c1ccn2COC(=O)c1ccccc1.O=C(O)C(F)(F)F` [Example 157], for which the Papp – broadly, the rate of passage across a membrane or cell layer, normalised by area and donor concentration – at 90 min, 10 µM in data set [1] (setting [4]) is 7.3 ×10⁻⁶ cm/s. Also, the SGF in data set [2] (% @ 1 h (remaining) in simulated gastric fluid) is given as 96% @ 1 h. The SIF in data set [3] (% @ 1 h (remaining) in simulated intestinal fluid) is 20% @ 1 h. For the same compound, the “human Plasma stability” value in “Plasma Stability” (% @ 1 h (remaining) in human plasma) worked out at 0% @ 1 h.
Regarding `CC(C)OCCn1c(SCOC(=O)[C@@H](N)Cc2ccccc2)nc(=O)c2c1ccn2COC(=O)[C@@H](N)Cc1ccccc1.O=C(O)C(F)(F)F.O=C(O)C(F)(F)F` [Example 309, bis(trifluoroacetic acid) {[5-({[(2S)-2-amino-3-phenylpropanoyl]oxy}methyl)-4-oxo-1-[2-(propan-2-yloxy)ethyl]-1H,4H,5H-pyrrolo[3,2-d]pyrimidin-2-yl]sulfanyl}methyl (2S)-2-amino-3-phenylpropanoate], the apparent permeability (Papp) at 90 min, 10 µM in data set [1] (Caco-2, pH 7.4) was < 0.123 ×10⁻⁶ cm/s. Also, the SGF in data set [2] (% remaining @ 1 h) is 98% @ 1 h. Moreover, in data set [3] (% remaining @ 1 h), the SIF was 86% @ 1 h. Further, the “human Plasma stability” value in “Plasma Stability” (% remaining @ 1 h) came out at 5% @ 1 h.
For `Cc1ccccc1N(C)C(=O)OCSc1nc(=O)c2c(ccn2COC(=O)N(C)c2ccccc2C)n1CCOC(C)C` [Example 243], the apparent permeability (Papp) at 90 min, 10 µM in data set [1] (setting [4]) was found to be 31.4 ×10⁻⁶ cm/s. The SGF in data set [2] (setting [5]) was 88% remaining. Moreover, the SIF in data set [3] (setting [6]) is listed as 99% remaining. Besides, the “human Plasma stability” value in “Plasma Stability” (human plasma, at 1 h) was 99% remaining.
`CC(C)OCCn1c(=S)[nH]c(=O)c2c1ccn2COC(N)=O` [Example 181, Carbamic acid 1-(2-isopropoxy-ethyl)-4-oxo-2-thioxo-1,2,3,4-tetrahydro-pyrrolo[3,2-d]pyrimidin-5-ylmethyl ester]: in data set [1] (Caco-2, pH 7.4, donor 10 μM, 90 minutes, 37° C., direction not given), the apparent permeability coefficient (Papp) at 90 min, 10 µM was determined as 21.8 ×10⁻⁶ cm/s. Moreover, in data set [2] (% remaining at 1 h, SGF with pepsin pH 1.2, 2 μg/mL, 37° C.), the SGF is on record as 82%. In data set [3] (% remaining at 1 h, SIF with pancreatin pH 6.8, 2 μg/mL, 37° C.), the SIF is given as 97%. In addition, the “human Plasma stability” value in “Plasma Stability” (% remaining at 1 h, human plasma, 1 μM, 37° C.) came to 99%.
For `CC(C)OCCn1c(=S)[nH]c(=O)c2c1ccn2COC(=O)CCCCOC(=O)[C@H](N)Cc1ccccc1.O=C(O)C(F)(F)F` [Example 341, trifluoroacetic acid {4-oxo-1-[2-(propan-2-yloxy)ethyl]-2-sulfanylidene-1H,2H,3H,4H,5H-pyrrolo[3,2-d]pyrimidin-5-yl}methyl 5-{[(2R)-2-amino-3-phenylpropanoyl]oxy}pentanoate], the Papp at 90 min, 10 µM in data set [1] (Caco-2, pH 7.4) was determined as 0.259 ×10⁻⁶ cm/s. In addition, the SGF in data set [2] (setting [7]) is 99. In addition, in data set [3] (setting [7]), the SIF was 33. The “human Plasma stability” value in the data set “Plasma Stability” (% remaining @ 1 h) came out at 1% remaining.
For the compound `CC(C)OCCn1c(=S)n(COC(=O)[C@H](C)N)c(=O)c2c1ccn2COC(=O)[C@H](C)N.O=C(O)C(F)(F)F.O=C(O)C(F)(F)F` [Example 289, bis(trifluoroacetic acid) [3-({[(2S)-2-aminopropanoyl]oxy}methyl)-4-oxo-1-[2-(propan-2-yloxy)ethyl]-2-sulfanylidene-1H,2H,3H,4H,5H-pyrrolo[3,2-d]pyrimidin-5-yl]methyl (2S)-2-aminopropanoate], the Papp at 90 min, 10 µM in data set [1] (Caco-2, pH 7.4) was < 0.366 ×10⁻⁶ cm/s. The SGF in data set [2] (% remaining @ 1 h) was 100% @ 1 h. In data set [3] (% remaining @ 1 h), the SIF is 97% @ 1 h. For the same compound, the “human Plasma stability” value in the data set “Plasma Stability” (% remaining @ 1 h) is on record as 39% @ 1 h.
The compound `CC(C)OCCn1c(=S)[nH]c(=O)c2c1ccn2COC(=O)CCCOC(=O)[C@H](NC(=O)OC(C)(C)C)C(C)C` [Example 355, 4-oxo-4-({4-oxo-1-[2-(propan-2-yloxy)ethyl]-2-sulfanylidene-1H,2H,3H,4H,5H-pyrrolo[3,2-d]pyrimidin-5-yl}methoxy)butyl (2R)-2-{[(tert-butoxy)carbonyl]amino}-3-methylbutanoate] returned an apparent permeability coefficient (Papp) at 90 min, 10 µM in data set [1] (setting [4]) of 2.16 ×10⁻⁶ cm/s. Further, in data set [2] (simulated gastric fluid, remaining at 1 h), the SGF is given as 99% remaining. Moreover, the SIF in data set [3] (simulated intestinal fluid, remaining at 1 h) is recorded as 100% remaining. The “human Plasma stability” value in “Plasma Stability” (human plasma, remaining at 1 h) is given as 43% remaining.
`CCOC(=O)n1ccc2c1c(=O)[nH]c(=S)n2CCOC(C)C` [Example 230]: in data set [1] (setting [4]), the apparent permeability (Papp) at 90 min, 10 µM was 0.456 ×10⁻⁶ cm/s. The SGF in data set [2] (setting [5]) is given as 99% remaining. In data set [3] (setting [6]), the SIF is listed as 33% remaining. In addition, the “human Plasma stability” value in “Plasma Stability” (human plasma, at 1 h) was 2% remaining.
